Experimental data from patent US20240270750A1, “IMIDAZOLE-CONTAINING INHIBITORS OF ALK2 KINASE” (BioCryst Pharmaceuticals, Inc., priority 2021, published 2024).

Biological target: T1, ALK2 (Homo sapiens, UniProt Q04771)
T1 construct: purchased ThermoFisher Scientific (Life Technologies)
T1 sequence (Q04771 21-509): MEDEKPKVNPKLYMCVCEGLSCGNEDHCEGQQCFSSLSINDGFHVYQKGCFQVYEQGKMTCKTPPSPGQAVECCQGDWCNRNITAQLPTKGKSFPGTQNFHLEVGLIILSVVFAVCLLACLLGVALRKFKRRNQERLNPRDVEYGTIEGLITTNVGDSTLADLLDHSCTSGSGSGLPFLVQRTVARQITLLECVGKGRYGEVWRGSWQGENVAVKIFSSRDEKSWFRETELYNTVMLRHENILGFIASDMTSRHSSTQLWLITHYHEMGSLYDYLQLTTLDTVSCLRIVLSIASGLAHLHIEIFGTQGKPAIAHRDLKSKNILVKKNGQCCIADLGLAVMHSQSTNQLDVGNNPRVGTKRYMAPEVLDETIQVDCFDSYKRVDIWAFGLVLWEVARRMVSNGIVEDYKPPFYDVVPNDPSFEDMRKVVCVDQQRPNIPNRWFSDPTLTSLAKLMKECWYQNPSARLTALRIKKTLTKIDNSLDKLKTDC
Experiment: LanthaScreen Eu Kinase Binding Assay, ALK2 inhibition
Settings: 1 micromolar concentration
Experimental: Biochemical assays to measure the inhibitory effects of the compounds were performed by ThermoFisher Scientific (Life Technologies). ALK2 inhibition was tested using LanthaScreen™ Eu Kinase Binding Assay screening protocol.

Row | SMILES | inhibition at 1 µM [%]
1 | COc1cc(-n2cnc(Nc3nc(C4CCN(C)CC4)nc4c3cnn4C(C)C)c2)cc(OC)c1OC [Compound 48a, 1-isopropyl-6-(1-methylpiperidin-4-yl)-N-(1-(3,4,5-trimethoxyphenyl)-1H-imidazol-4-yl)-1H-pyrazolo[3,4-d]pyrimidin-4-amine] | > 50
2 | COc1cc(-n2cnc(Nc3nc(CC4CC4)nc4c3cnn4C(C)(C)C)c2)cc(OC)c1OC [Compound 119e, 1-(tert-butyl)-6-(cyclopropylmethyl)-N-(1-(3,4,5-trimethoxyphenyl)-1H-imidazol-4-yl)-1H-pyrazolo[3,4-d]pyrimidin-4-amine] | > 50
3 | COc1cc(-n2cnc(Nc3nc(CO)nc4c3cnn4C(C)C)c2)cc(OC)c1OC [Compound 36e, (1-isopropyl-4-((1-(3,4,5-trimethoxyphenyl)-1H-imidazol-4-yl)amino)-1H-pyrazolo[3,4-d]pyrimidin-6-yl)methanol] | > 50
4 | COc1cc(-n2cnc(Nc3nc(C4=CN(C(=O)OC(C)(C)C)CC4)nc4c3cnn4C(C)C)c2)cc(OC)c1OC [Compound 40b, tert-butyl 4-(1-isopropyl-4-((1-(3,4,5-trimethoxyphenyl)-1H-imidazol-4-yl)amino)-1H-pyrazolo[3,4-d]pyrimidin-6-yl)-2,3-dihydro-1H-pyrrole-1-carboxylate] | > 50
5 | C=CCC(C)c1nc(Nc2cn(-c3cc(OC)c(OC)c(OC)c3)cn2)c2cnn(C(C)C)c2n1 (stereo not drawn) [Compound 27f, 1-isopropyl-6-(pent-4-en-2-yl)-N-(1-(3,4,5-trimethoxyphenyl)-1H-imidazol-4-yl)-1H-pyrazolo[3,4-d]pyrimidin-4-amine] | > 50
6 | COc1cc(-n2cnc(Nc3nc(C4CC4)nc4c3cnn4CC3CC3)c2)cc(OC)c1OC [Compound 120f, 6-cyclopropyl-1-(cyclopropylmethyl)-N-(1-(3,4,5-trimethoxyphenyl)-1H-imidazol-4-yl)-1H-pyrazolo[3,4-d]pyrimidin-4-amine] | > 50
7 | C=C(C)c1nc(Nc2cn(-c3cc(OC)c(OC)c(OC)c3)cn2)c2ccn(C(C)C)c2n1 [Compound 97c, 7-isopropyl-2-(prop-1-en-2-yl)-N-(1-(3,4,5-trimethoxyphenyl)-1H-imidazol-4-yl)-7H-pyrrolo[2,3-d]pyrimidin-4-amine] | > 50
8 | COc1cc(-n2cnc(Nc3nc(C(C)C)nc4c3cnn4-c3ccc(F)cc3)c2)cc(OC)c1OC [Compound 1f, 1-(4-fluorophenyl)-6-isopropyl-N-(1-(3,4,5-trimethoxyphenyl)-1H-imidazol-4-yl)-1H-pyrazolo[3,4-d]pyrimidin-4-amine] | > 50
9 | C=C(C)c1nc(Nc2cn(-c3cc(OC)c(OC)c(OC)c3)cn2)c2cccnc2n1 [Compound 82c, 2-(prop-1-en-2-yl)-N-(1-(3,4,5-trimethoxyphenyl)-1H-imidazol-4-yl)pyrido[2,3-d]pyrimidin-4-amine] | > 50
10 | CCCCCn1ncc2c(Nc3cn(-c4cc(OC)c(OC)c(OC)c4)cn3)nc(C(C)C)nc21 [Compound 16c, 6-isopropyl-1-pentyl-N-(1-(3,4,5-trimethoxyphenyl)-1H-imidazol-4-yl)-1H-pyrazolo[3,4-d]pyrimidin-4-amine] | > 50
11 | COc1cc2nc(C(C)C)nc(Nc3cn(-c4cc(OC)c(OC)c(OC)c4)cn3)c2cc1OC [Compound 79a, 2-isopropyl-6,7-dimethoxy-N-(1-(3,4,5-trimethoxyphenyl)-1H-imidazol-4-yl)quinazolin-4-amine] | < 50
12 | C=C(C)c1nc(Nc2cn(-c3cc(OC)c(OC)c(OC)c3)cn2)c2ccsc2n1 [Compound 80c, 2-(prop-1-en-2-yl)-N-(1-(3,4,5-trimethoxyphenyl)-1H-imidazol-4-yl)thieno[2,3-d]pyrimidin-4-amine] | > 50
13 | COc1cc(-n2cnc(Nc3nc(C(C)C)nc4c3CCN(C(=O)OC(C)(C)C)C4)c2)cc(OC)c1OC [Compound 77a, tert-butyl 2-isopropyl-4-((1-(3,4,5-trimethoxyphenyl)-1H-imidazol-4-yl)amino)-5,6-dihydropyrido[3,4-d]pyrimidine-7 (8H)-carboxylate] | > 50
14 | COc1cc(-n2cnc(Nc3nc(C(C)C)nc4c3ncn4C(C)C)c2)cc(OC)c1OC [Compound 94a, 2,9-diisopropyl-N-(1-(3,4,5-trimethoxyphenyl)-1H-imidazol-4-yl)-9H-purin-6-amine] | > 50
15 | COc1cc(-n2cnc(Nc3nc(C4CCCC4)nc4c3cnn4C(C)C)c2)cc(OC)c1OC [Compound 44e, 6-cyclopentyl-1-isopropyl-N-(1-(3,4,5-trimethoxyphenyl)-1H-imidazol-4-yl)-1H-pyrazolo[3,4-d]pyrimidin-4-amine] | > 50
16 | C=C(C)c1nc(Nc2cn(-c3cc(OC)c(OC)c(OC)c3)cn2)nc2sccc12 [Compound 90b, 4-(prop-1-en-2-yl)-N-(1-(3,4,5-trimethoxyphenyl)-1H-imidazol-4-yl)thieno[2,3-d]pyrimidin-2-amine] | > 50
17 | COc1cc(-n2cnc(Nc3nc(C(C)CC(=O)O)nc4c3cnn4C(C)C)c2)cc(OC)c1OC (stereo not drawn) [Compound 106a, 3-(1-isopropyl-4-((1-(3,4,5-trimethoxyphenyl)-1H-imidazol-4-yl)amino)-1H-pyrazolo[3,4-d]pyrimidin-6-yl)butanoic acid] | > 50
18 | COc1cc(-n2cnc(Nc3nc(C4CCC4)nc4c3cnn4C(C)C)c2)cc(OC)c1OC [Compound 35d, 6-cyclobutyl-1-isopropyl-N-(1-(3,4,5-trimethoxyphenyl)-1H-imidazol-4-yl)-1H-pyrazolo[3,4-d]pyrimidin-4-amine] | > 50
19 | COc1cc(-n2cnc(NC3=NC(C(C)C)=NC4C=COC34)c2)cc(OC)c1OC (stereo not drawn) [Compound 105a, 2-isopropyl-N-(1-(3,4,5-trimethoxyphenyl)-1H-imidazol-4-yl)-4a,7a-dihydrofuro[3,2-d]pyrimidin-4-amine] | > 50
20 | COc1cc(-n2cnc(Nc3nc(C(C)C)c4sccc4n3)c2)cc(OC)c1OC [Compound 54a, 4-isopropyl-N-(1-(3,4,5-trimethoxyphenyl)-1H-imidazol-4-yl)thieno[3,2-d]pyrimidin-2-amine] | > 50
21 | COc1cc(-n2cnc(Nc3nc(CC(C)C)nc4c3CCC4c3ccccc3)c2)cc(OC)c1OC (stereo not drawn) [Compound 46d, 2-isobutyl-7-phenyl-N-(1-(3,4,5-trimethoxyphenyl)-1H-imidazol-4-yl)-6,7-dihydro-5H-cyclopenta[d]pyrimidin-4-amine] | > 50
22 | COc1cc(-n2cnc(Nc3nc(C4CC4)nc4c3cnn4C(C)(C)C)c2)cc(OC)c1OC [Compound 112d, 1-(tert-butyl)-6-cyclopropyl-N-(1-(3,4,5-trimethoxyphenyl)-1H-imidazol-4-yl)-1H-pyrazolo[3,4-d]pyrimidin-4-amine] | > 50
23 | C=C(C)c1nc(Nc2cn(-c3cc(OC)c(OC)c(OC)c3)cn2)nc2ccccc12 [Compound 55c, 4-(prop-1-en-2-yl)-N-(1-(3,4,5-trimethoxyphenyl)-1H-imidazol-4-yl)quinazolin-2-amine] | > 50
24 | CCC(C)c1nc(Nc2cn(-c3cc(OC)c(OC)c(OC)c3)cn2)c2cnn(C(C)C)c2n1 (stereo not drawn) [Compound 33d, 6-(sec-butyl)-1-isopropyl-N-(1-(3,4,5-trimethoxyphenyl)-1H-imidazol-4-yl)-1H-pyrazolo[3,4-d]pyrimidin-4-amine] | > 50
25 | C=C(C)c1nc(Nc2cn(-c3cc(OC)c(OC)c(OC)c3)cn2)c2ccccc2n1 [Compound 70b, 2-(prop-1-en-2-yl)-N-(1-(3,4,5-trimethoxyphenyl)-1H-imidazol-4-yl)quinazolin-4-amine] | > 50
26 | COc1cc(-n2cnc(Nc3nc(C(C)C)nc4c3OCC4)c2)cc(OC)c1OC [Compound 69a, 2-isopropyl-N-(1-(3,4,5-trimethoxyphenyl)-1H-imidazol-4-yl)-6,7-dihydrofuro[3,2-d]pyrimidin-4-amine] | > 50
27 | COc1ccc2c(Nc3cn(-c4cc(OC)c(OC)c(OC)c4)cn3)nc(C(C)C)nc2c1 [Compound 75a, 2-isopropyl-7-methoxy-N-(1-(3,4,5-trimethoxyphenyl)-1H-imidazol-4-yl)quinazolin-4-amine] | > 50
28 | COc1cc(-n2cnc(Nc3nc(C4CCOC4)nc4c3cnn4C(C)C)c2)cc(OC)c1OC (stereo not drawn) [Compound 45e, 1-isopropyl-6-(tetrahydrofuran-3-yl)-N-(1-(3,4,5-trimethoxyphenyl)-1H-imidazol-4-yl)-1H-pyrazolo[3,4-d]pyrimidin-4-amine] | > 50
29 | COc1cc(-n2cnc(Nc3nc(C(C)C)nc4c(C)csc34)c2)cc(OC)c1OC [Compound 96a, 2-isopropyl-7-methyl-N-(1-(3,4,5-trimethoxyphenyl)-1H-imidazol-4-yl)thieno[3,2-d]pyrimidin-4-amine] | > 50
30 | COc1cc(-n2cnc(Nc3nc(C4CC4)nc4c3cnn4C(C)C)c2)cc(OC)c1OC [Compound 7e, 6-cyclopropyl-1-isopropyl-N-(1-(3,4,5-trimethoxyphenyl)-1H-imidazol-4-yl)-1H-pyrazolo[3,4-d]pyrimidin-4-amine] | > 50
